Experimental data published in US20250221405A1, “ROOT NODULE FORMATION-PROMOTING COMPOSITION, AND ROOT HAIR FORMATION-PROMOTING COMPOSITION” (KANEKA CORPORATION, priority 2022, published 2025).

Experiments:
[1] = tested on: soybeans (Fukuyutaka); assay: Experimental Example 1: seed coating, number of root nodules; type: in vivo, soybean; settings: Table 1-2
Experimental: A solution of SF, SL, or RL dissolved in water (a composition for promoting root nodule formation) as the following amount in each of the following treatments was prepared. The seeds of soybeans (Fukuyutaka) were coated using the solution in an amount of 800 μL/100 g seed to obtain coated seeds.
(§1) A 9 cm poly pot was filled with culture soil and seeded with three coated seeds in each pot.
(§2) After seeding, the coated seeds were cultivated in a greenhouse set at 28° C. during the day (14h) and 18° C. at night (10h).
Seven days after the seeding, the soybeans in each pot were thinned to one plant, and each pot was irrigated with 4.3 ml of a mixture of rhizobium materials (rhizobium and azospirillum) mixed with water at a proportion of 10 g/L.
(§3) Twenty-one days after the irrigation, the roots were washed with water so as not to remove root nodules, the culture soil was removed, and then, the root nodules formed on the roots were collected.
After the seeding, each pot was fertilized with ½ Hoagland solution once a week. In addition, experiments were conducted on eight pots (eight plants) in each treatment.
A plurality of experiments were conducted by changing the type of the composition for promoting root nodule formation and the like. Tables 1-1 and 1-2 show the date of seeding, the date of irrigating, the date of investigating the number of root nodules, the amount of SF, SL, or RL in the composition for promoting root nodule formation, and the investigation result of the number of root nodules. Note that the number of root nodules is indicated by a relative value with Tl taken as 100, with a numerical value in parentheses indicating the average number of root nodules actually measured (pieces/plant).

[2] = tested on: soybeans (Fukuyutaka); assay: Experimental Example 2: soil irrigation with composition comprising rhizobium materials, number of root nodules; type: in vivo, soybean; settings: Table 2-2, irrigation
Experimental: For each of the following treatment, to a mixture of rhizobium materials (rhizobium and azospirillum) mixed with water at a proportion of 10 g/L, SF, SL, or RL was added in the following amount to prepare a solution comprising the rhizobium materials and SF, SL, or RL (a composition for promoting root nodule formation).
A 9 cm poly pot was filled with culture soil and seeded with three seeds of soybeans (Fukuyutaka) in each pot.
(§4) After seeding, the seeds were cultivated in a greenhouse set at 28° C. during the day (14h) and 18° C. at night (10h).
(§5) Seven days after the seeding, the soybeans in each pot were thinned to one plant, and each pot was irrigated with 4.3 ml of the composition for promoting root nodule formation (in the treatment T1, a mixture of rhizobium materials (rhizobium and azospirillum) mixed with water at a proportion of 10 g/L).
as §3
(§6) After the seeding, each pot was fertilized with ½ Hoagland solution (50 mL) once a week. In addition, experiments were conducted on eight pots (eight plants) in each treatment.
(§7) A plurality of experiments were conducted by changing the type of the composition for promoting root nodule formation and the like. Tables 2-1 and 2-2 show the date of seeding, the date of irrigating, the date of investigating the number of root nodules, the composition for promoting root nodule formation, and the investigation result of the number of root nodules. Note that the number of root nodules is indicated by a relative value with T1 taken as 100, with a numerical value in parentheses indicating the average number of root nodules actually measured (pieces/plant).

[3] = tested on: soybeans (Fukuyutaka); assay: Experimental Example 3: seed coating with biosurfactant and/or KVP, number of root nodules; type: in vivo, soybean; settings: Table 3-2
Experimental: A solution of SF, SL, or RL and/or KVP dissolved in water (a composition for promoting root nodule formation) as the following amount in each of the following treatments was prepared. The seeds of soybeans (Fukuyutaka) were coated using the solution in an amount of 800 μL/100 g seed to obtain coated seeds.
as §1, §2
Seven days after the seeding, the soybeans in each pot were thinned to one plant, and each pot was irrigated with 4.3 mL of a mixture of rhizobium materials (rhizobium and azospirillum) mixed with water at a proportion of 10 g/L.
as §3, §6
A plurality of experiments were conducted by changing the type of the composition for promoting root nodule formation and the like. Tables 3-1 and 3-2 show the amounts of SF, SL, or RL and/or KVP in the composition for promoting root nodule formation and the investigation result of the number of root nodules. Note that the number of root nodules is indicated by a relative value with Tl taken as 100, with a numerical value in parentheses indicating the average number of root nodules actually measured (pieces/plant).

[4] = tested on: soybeans (Fukuyutaka); assay: Experimental Example 4: soil irrigation with biosurfactant and/or KVP, root nodule number and weight, root weight; type: in vivo, soybean; settings: with rhizobium materials
Experimental: For each of the following treatments, to a mixture of rhizobium materials (rhizobium and azospirillum) mixed with water at a proportion of 10 g/L, SF, SL, or RL was added in the following amount to prepare a solution comprising the rhizobium materials and SF, SL, or RL (a composition for promoting root nodule formation).
A 9 cm poly pot was filled with sterilized fertilizer-free culture soil (Heiwa) and seeded three seeds of soybeans (Fukuyutaka) in each pot.
as §4, §5, §3, §6
as §7, with “4-1” for “2-1”, “4-2” for “2-2”, “Tl” for “T1”, “(pieces/plant). In addition, fresh root nodule weight means the weight of root nodules before drying on the day of collection and is indicated by a relative value with Tl taken as 100. Dried underground part weight means the weight of roots dried for 48 hours at 80° C. and indicated by a relative value with Tl taken as 100.” for “(pieces/plant).”

[5] = tested on: Japanese mustard spinach (Haru no Senbatsu); assay: Experimental Example 5: foliar application, microscopic observation of root hair; type: in vivo; parameters: key: those with a significant root hair increase observed were evaluated as AA; those with a root hair increase observed were evaluated as BB; those with no root hair increase observed were evaluated as CC; those with an overall or partial root hair decrease observed were evaluated as DD
Experimental: An observation tank formed with ½ MS agar medium (0.8% agar) was prepared in an acrylic tank. Japanese mustard spinach (Haru no Senbatsu) was seeded near the surface of the observation tank. After seeding, the Japanese mustard spinach was cultivated in an incubator set in a light period (6:00-18:00, temperature 26° C., illuminance 120 μmol/m^2·s) and a dark period (18:00-6:00, temperature 18° C.). Twelve to fourteen days after the seeding, the following liquid (a composition for promoting root hair formation) was applied on the leaf surfaces of the plant body (foliar application) so as not to drip on the agar in each of the following treatments. […] A plurality of experiments were conducted by changing the date of seeding, the date of foliar application, the date of observation, and the type of the composition for promoting root hair formation and the like. Tables 5 to 9 show the composition for promoting root hair formation, the outline of operation and the observation results of root hair.

[6] = seed coating SL or RL 0.5 g/t seed (diluted 16000 times)
[7] = seed coating SL or RL 5 g/t seed (diluted 1600 times)
[8] = Table 4-2, single agent diluted 1000 times
[9] = Table 4-2, single agent diluted 10000 times

Row | Substance | Number of Root Nodules, average number actually measured ([1]; seed coating 1 g/t seed) [pieces/plant] | Number of Root Nodules, relative value with T1 taken as 100 ([1]; seed coating 1 g/t seed) | Number of Root Nodules, average number actually measured ([1]; seed coating 10 g/t seed) [pieces/plant] | Number of Root Nodules, relative value with T1 taken as 100 ([1]; seed coating 10 g/t seed) | Number of Root Nodules, average number actually measured ([2]; diluted 1000 times) [pieces/plant] | Number of Root Nodules, relative value with T1 taken as 100 ([2]; diluted 1000 times) | Number of Root Nodules, average number actually measured ([2]; diluted 5000 times) [pieces/plant] | Number of Root Nodules, relative value with T1 taken as 100 ([2]; diluted 5000 times) | Number of Root Nodules, average number actually measured ([2]; diluted 10000 times) [pieces/plant] | Number of Root Nodules, relative value with T1 taken as 100 ([2]; diluted 10000 times) | Number of Root Nodules, average number actually measured [3, 6] [pieces/plant] | Number of Root Nodules, relative value with T1 taken as 100 [3, 6] | Number of Root Nodules, average number actually measured [3, 7] [pieces/plant] | Number of Root Nodules, relative value with T1 taken as 100 [3, 7] | Dried Underground Part Weight, relative value with T1 taken as 100 [4, 8] | Fresh Root Nodule Weight, relative value with T1 taken as 100 [4, 8] | Number of Root Nodules, average number actually measured [4, 8] [pieces/plant] | Number of Root Nodules, relative value with T1 taken as 100 [4, 8] | Dried Underground Part Weight, relative value with T1 taken as 100 [4, 9] | Fresh Root Nodule Weight, relative value with T1 taken as 100 [4, 9] | further results
1 | rhamnolipid [RL] | 16.0 | 137 | 13.2 | 113 | 13.6 | 116 | 13.6 | 116 | 13.4 | 115 | 24.6 | 105 | 25.3 | 107 | 105 | 115 | 19.5 | 116 | 105 | 114 | Number of Root Nodules, average number actually measured ([1]; seed coating 50 g/t seed): 15.3 pieces/plant; Number of Root Nodules, relative value with T1 taken as 100 ([1]; seed coating 50 g/t seed): 131; Number of Root Nodules, average number actually measured [4, 9]: 18.5 pieces/plant; Number of Root Nodules, relative value with T1 taken as 100 [4, 9]: 110; Observation Result (root hair) ([5]; Table 7, aqueous solution diluted 1000 times): BB; Observation Result (root hair) ([5]; Table 7, aqueous solution diluted 2000 times): BB; Observation Result (root hair) ([5]; Table 7, aqueous solution diluted 5000 times): BB
2 | sophorolipid [SL] | 15.3 | 131 | 13.3 | 114 | 15.7 | 134 | 12.1 | 104 | 11.9 | 102 | 24.5 | 104 | 24.9 | 106 | 102 | 113 | 18.5 | 110 | 185 | 105 | Number of Root Nodules, average number actually measured ([1]; seed coating 0.1 g/t seed): 11.8 pieces/plant; Number of Root Nodules, relative value with T1 taken as 100 ([1]; seed coating 0.1 g/t seed): 101; Number of Root Nodules, average number actually measured [4, 9]: 17.8 pieces/plant; Number of Root Nodules, relative value with T1 taken as 100 [4, 9]: 105; Observation Result (root hair) ([5]; Table 6, aqueous solution diluted 1000 times): BB; Observation Result (root hair) ([5]; Table 6, aqueous solution diluted 2000 times): BB
